The text below walks through data of patent US7973056B2, “Triazole derivative or salt thereof” (Fujifilm Finechemicals Co., Ltd, priority 2008, dated 2011).

For data set [1], the system named is Pityrosporum ovale ATCC 38593. Put plainly: Antifungal activity test (in vitro), MIC. The data set is classed as cell-based. The settings on record: Malassezia furfur, ATCC38593. The protocol: (§1) Minimum inhibitory concentration (MIC) of each of the compounds obtained in Examples 1 to 12 was measured for respective fungi at MOS Pharm Service, by the methods described in Antimicrobial Agents and Chemotherapy, vol. 3, pp. 40-48 (1973), Antimicrobial Agents and Chemotherapy, vol. 33, pp. 215-222 (1989) and Antimicrobial Agents and Chemotherapy, vol. 38, pp. 2362-2368 (1994). The measuring conditions are shown in the following. In this case, Voriconazol was used as a comparative compound. Cryptococcus neoformans ATCC 24067, Pityrosporum ovale ATCC 38593; Cultured at 37° C. for 2 day using fluid Sabouraud medium, and this was used as a cell suspension. Each of the compounds of the invention was adjusted to a concentration of 1% by weight using dimethyl sulfoxide (DMSO) and a medium similar to the respective medium used in the above-mentioned fungal culture, having a final concentration of from 0.001 to 100 μg/ml, was prepared. Each of the inoculation cell suspensions prepared by the above-mentioned methods was inoculated onto this agar plate. […] In this connection, Voriconazol was used as the comparative compound C-1.

In data set [2] the test system is Cryptococcus neoformans ATCC 24067. Put plainly: Antifungal activity test (in vitro), MIC. The settings on record: ATCC24067. In kind it is cell-based. The protocol:
as §1

For data set [3], the system named is Trichophyton mentagrophytes ATCC 9533. Put plainly: Antifungal activity test (in vitro), MIC. The data set is classed as cell-based. The settings on record: ATCC9533. The protocol: as §1, with “Trichophyton mentagrophytes” for “Cryptococcus neoformans”, “9533;” for “24067, Pityrosporum ovale ATCC 38593;”, “28°” for “37°”, “3 days” for “2 day”
The subject of data set [4] is Candida albicans ATCC 10231. Put plainly: Antifungal activity test (in vitro), MIC. The following applies: ATCC10231. The data set is classed as cell-based. As for the experimental part: as §1, with “Candida albicans” for “Cryptococcus neoformans”, “10231 and” for “24067, Pityrosporum ovale”, “44858;” for “38593;”, “20 hours” for “2 day”
For data set [5], the system named is Aspergillus fumigatus ATCC 1028. Put plainly: Antifungal activity test (in vitro), MIC. The data set is classed as cell-based. The following applies: ATCC1028. The protocol: Minimum inhibitory concentration (MIC) of each of the compounds obtained in Examples 1 to 12 was measured for respective fungi at MOS Pharm Service, by the methods described in Antimicrobial Agents and Chemotherapy, vol. 3, pp. 40-48 (1973), Antimicrobial Agents and Chemotherapy, vol. 33, pp. 215-222 (1989) and Antimicrobial Agents and Chemotherapy, vol. 38, pp. 2362-2368 (1994). The measuring conditions are shown in the following. In this case, Voriconazol was used as a comparative compound.
Aspergillus fumigatus ATCC 1028; Cultured at 28° C. for 2 days using potato dextrose broth, and this was used as a cell suspension.
Each of the compounds of the invention was adjusted to a concentration of 1% by weight using dimethyl sulfoxide (DMSO) and a medium similar to the respective medium used in the above-mentioned fungal culture, having a final concentration of from 0.001 to 100 μg/ml, was prepared. Each of the inoculation cell suspensions prepared by the above-mentioned methods was inoculated onto this agar plate. […] In this connection, Voriconazol was used as the comparative compound C-1.

Data set [6] relates to Microsporum canis ATCC 36299. Put plainly: Antifungal activity test (in vitro), MIC. In kind it is cell-based. The settings on record: ATCC36299. The protocol:
as §1, with “Microsporum canis” for “Cryptococcus neoformans”, “36299;” for “24067, Pityrosporum ovale ATCC 38593;”, “30°” for “37°”, “days” for “day”

SMILES strings stand for the structures. Converted amounts (≈) assume the structure as drawn.

On to `C[C@@H](n1ccc(-c2ccccn2)cc1=O)[C@](O)(Cn1cncn1)c1ccc(F)cc1F` [I-8, 1′-[(1R,2R)-2-(2,4-difluorophenyl)-2-hydroxy-1-methyl-3-(1,2,4-triazol-1-yl)propyl]-2,4′-bipyridin-2′-one], for which the MIC in data set [1] was found to be 1 mg/L (≈ 2.36 µM); in data set [2], 0.3 mg/L (≈ 0.709 µM); in data set [3], 30 mg/L (≈ 70.9 µM); in data set [4], 0.1 mg/L (≈ 0.236 µM); in data set [5], 100 mg/L (≈ 236 µM); in data set [6] it was 10 mg/L (≈ 23.6 µM).
Take `Cc1ccc(C2=CCN([C@H](C)[C@](O)(Cn3cncn3)c3ccc(F)cc3F)CC2)nc1C` [I-4, (2R,3R)-2-(2,4-difluorophenyl)-3-(5,6-dimethyl-3′,6′-dihydro-2,4′-bipyridin-1′(2′H)-yl)-1-(1,2,4-triazol-1-yl)butan-2-ol]: the melting point was 85.5 to 87.5 °C. In data set [1], this molecule registered an MIC of 10 mg/L (≈ 22.8 µM). In data set [2], this molecule showed an MIC of 0.1 mg/L (≈ 0.228 µM). The molecule also came in with an MIC in data set [3] of 0.3 mg/L (≈ 0.683 µM). In data set [4], this molecule gave an MIC of 0.3 mg/L (≈ 0.683 µM). In data set [5], the lowest concentration to inhibit growth (MIC) was 10 mg/L (≈ 22.8 µM). The MIC in data set [6] amounted to 1 mg/L (≈ 2.28 µM).
The molecule `C[C@@H](N1CCC=C(c2ccccn2)C1)[C@](O)(Cn1cncn1)c1ccc(F)cc1F` [I-10, (2R,3R)-2-(2,4-difluorophenyl)-3-(5′,6′-dihydro-2,3′-bipyridin-1′(2′H)-yl)-1-(1,2,4-triazol-1-yl)butan-2-ol] displayed a melting point of 89 to 92 °C. For the same molecule, the MIC in data set [1] amounted to 0.3 mg/L (≈ 0.729 µM). This molecule also came in with an MIC in data set [2] of 1 mg/L (≈ 2.43 µM). For the same molecule, in data set [3], the MIC worked out at 3 mg/L (≈ 7.29 µM). Also, it took 3 mg/L (≈ 7.29 µM) to inhibit growth in data set [4] (MIC). The MIC in data set [5] came to 100 mg/L (≈ 243 µM). This molecule also displayed an MIC in data set [6] of 100 mg/L (≈ 243 µM).
`C[C@@H](Oc1cc(-c2ccccn2)ccn1)[C@](O)(Cn1cncn1)c1ccc(F)cc1F` [I-9, (2R,3R)-3-(2,4′-bipyridin-2′-yloxy)-2-(2,4-difluorophenyl)-1-(1,2,4-triazol-1-yl)butan-2-ol]: the melting point lay within 178 to 180 °C. Further, inhibition of growth in data set [1] (MIC) required 0.3 mg/L (≈ 0.709 µM). Further, it took 0.3 mg/L (≈ 0.709 µM) to inhibit growth in data set [2] (MIC). Moreover, the MIC in data set [3] stood at 10 mg/L (≈ 23.6 µM). The molecule further returned an MIC in data set [4] of 0.3 mg/L (≈ 0.709 µM). The molecule further registered an MIC in data set [5] of 30 mg/L (≈ 70.9 µM). Further, the MIC in data set [6] worked out at 10 mg/L (≈ 23.6 µM).
The molecule `C[C@@H](N1CCCC(c2ccccn2)C1)[C@](O)(Cn1cncn1)c1ccc(F)cc1F` (stereo partly drawn) [I-12, (2R,3R)-2-(2,4-difluorophenyl)-3-(3-pyridin-2-ylpiperidin-1-yl)-1-(1,2,4-triazol-1-yl)butan-2-ol] displayed a melting point of 75 to 78 °C. Also, 10 mg/L (≈ 24.2 µM) was the least that counted as inhibitory in data set [1] (MIC). This molecule also registered an MIC in data set [2] of 10 mg/L (≈ 24.2 µM). This molecule showed an MIC in data set [3] of 100 mg/L (≈ 242 µM). The molecule also displayed an MIC in data set [4] of 0.1 mg/L (≈ 0.242 µM). For the same molecule, in data set [5], the MIC was determined as 100 mg/L (≈ 242 µM). Moreover, inhibition of growth in data set [6] (MIC) required 100 mg/L (≈ 242 µM).
Consider `C[C@@H](N1CCC(c2ccc(F)cn2)CC1)[C@](O)(Cn1cncn1)c1ccc(F)cc1F` [I-2, (2R,3R)-2-(2,4-difluorophenyl)-3-[4-(5-fluoropyridin-2-yl)piperidin-1-yl]-1-(1,2,4-triazol-1-yl)butan-2-ol], for which the melting point lay within 100 to 102 °C. In data set [1], this molecule had an MIC of 0.01 mg/L (≈ 0.0232 µM). This molecule returned an MIC in data set [2] of 0.3 mg/L (≈ 0.695 µM). In data set [3], this molecule had an MIC of 1 mg/L (≈ 2.32 µM). In data set [4], this molecule had an MIC of 0.1 mg/L (≈ 0.232 µM). Further, the MIC in data set [5] turned out to be 10 mg/L (≈ 23.2 µM). Also, the MIC in data set [6] was found to be 10 mg/L (≈ 23.2 µM).
The molecule `Cc1ccc(C2=CCN([C@H](C)[C@](O)(Cn3cncn3)c3ccc(F)cc3F)CC2)nc1` [I-5, (2R,3R)-2-(2,4-difluorophenyl)-3-(5-methyl-3′,6′-dihydro-2,4′-bipyridin-1′(2′H)-yl)-1-(1,2,4-triazol-1-yl)butan-2-ol] had a melting point of 115 to 117 °C. The molecule further displayed an MIC in data set [1] of 0.003 mg/L (≈ 0.00705 µM). In data set [2], this molecule showed an MIC of 0.03 mg/L (≈ 0.0705 µM). The same molecule had an MIC in data set [3] of 0.1 mg/L (≈ 0.235 µM). Inhibition of growth in data set [4] (MIC) required 0.1 mg/L (≈ 0.235 µM). The MIC in data set [5] amounted to 3 mg/L (≈ 7.05 µM). The same molecule showed an MIC in data set [6] of 1 mg/L (≈ 2.35 µM).
As to `C[C@@H](N1CC=C(c2ccc(F)cn2)CC1)[C@](O)(Cn1cncn1)c1ccc(F)cc1F` [I-7, (2R,3R)-2-(2,4-difluorophenyl)-3-(5-fluoro-3′,6′-dihydro-2,4′-bipyridin-1′(2′H)-yl)-1-(1,2,4-triazol-1-yl)butan-2-ol], the melting point was in the range of 148 to 150 °C. In addition, the MIC in data set [1] worked out at 0.01 mg/L (≈ 0.0233 µM). The minimum inhibitory concentration (MIC) in data set [2] was found to be 0.3 mg/L (≈ 0.699 µM). Moreover, the MIC in data set [3] was determined as 1 mg/L (≈ 2.33 µM). In data set [4], this molecule yielded an MIC of 0.1 mg/L (≈ 0.233 µM). In addition, 10 mg/L (≈ 23.3 µM) was the least that counted as inhibitory in data set [5] (MIC). The same molecule yielded an MIC in data set [6] of 10 mg/L (≈ 23.3 µM).

A word on the MIC: it is the least concentration at which growth counts as inhibited. The low end stands for inhibition by little substance, the high end for a need for much substance. What is called melting point is the temperature, or range, at which the solid turns liquid.
